# Reference: patent US9951058B2, “Compound, pharmaceutically acceptable salt or optical isomer thereof, method for preparing the same, and pharmaceutical composition for prevention or treatment of viral diseases containing same as active ingredient” (Korea Research Institute of Chemical Technology, priority 2012, dated 2018)
# What was measured:
# [1] = tested on: coxsackievirus B3 (Cox B3); test: Multicycle cytopathic effect (CPE) reduction assay; assay type: cell-based; details: Enterovirus B, B3, 72 h, read-out: EC50 CoxB3
# [2] = in vitro; details: human
# [3] = Cytotoxicity (CC50) in multicycle CPE reduction assay, MTS; details: human
# [4] = tested on: coxsackievirus B1 (Cox B1); test: Multicycle cytopathic effect (CPE) reduction assay; assay type: cell-based; details: Enterovirus B, B1, 72 h, read-out: EC50 CoxB1
# [5] = tested on: HRV 21; test: Cytopathic effect (CPE) inhibition assay; assay type: cell-based, human rhinovirus; details: Human rhinovirus sp., 72 h; host cell HeLa, 3 days, MEM/2% FBS, MTT assay; read-out: EC50 HRV 21
# [6] = tested on: HRV 71; test: Cytopathic effect (CPE) inhibition assay; assay type: cell-based, human rhinovirus; details: Human rhinovirus sp., 72 h; host cell HeLa, 3 days, MEM/2% FBS, MTT assay; read-out: EC50 HRV 71
# [7] = tested on: HRV 14; test: Cytopathic effect (CPE) inhibition assay; assay type: cell-based, human rhinovirus; details: Human rhinovirus sp., HeLa, 72 h, host cell HeLa, 3 days, MEM/2% FBS, MTT assay; read-out: EC50 HRV 14
# [8] = tested on: poliovirus 3 (PV3); test: microbe, parasite or virus in culture; assay type: cell-based; details: Enterovirus C, 72 h, read-out: EC50 PV3
Compound,EC50 [1],CC50 [2],CC50 at 3 days [3],EC50 [4],EC50 [5],EC50 [6],EC50 [7],EC50 [8]
"Cc1cc(C)c(C(=O)C(=O)NC23C(=O)c4c(N)cccc4C2(O)Oc2cc(C(C)C)ccc23)c(C)c1 (stereo not shown) [Example 54, N-(1-amino-4b-hydroxy-7-isopropyl-10-oxo-4b, 10-dihydro-9bH-indeno[1,2-b]benzofuran-9b-yl)-2-mesityl-2-oxo acetamide]",< 0.1 µg/mL,8.6 µg/mL,> 10 µg/mL,< 0.1 µg/mL,> 8.6 µg/mL,> 8.6 µg/mL,< 1 µg/mL,< 10 µg/mL
"CC(C)c1ccc2c(c1)OC1(O)c3ccccc3C(=O)C21NC#N (stereo not shown) [Example 46, N-(4b-hydroxy-7-isopropyl-10-oxo-4b, 10-dihydro-9bH-indeno[1,2-b]benzofuran-9b-yl)cyanamide]",< 10 µg/mL,> 10 µg/mL,> 10 µg/mL,< 10 µg/mL,> 10 µg/mL,> 10 µg/mL,> 10 µg/mL,> 10 µg/mL
"CC(C)c1ccc2c(c1)OC1(O)c3ccccc3C(=O)C21NC(=O)C(=O)c1ccccc1 (stereo not shown) [Example 15, N-(4b-hydroxy-7-isopropyl-10-oxo-9b, 10-dihydro-4bH-indeno[1,2-b]benzofuran-9b-yl)-2-oxo-2-phenyl acetamide]",< 0.01 µg/mL,8.72 µg/mL,8.8 µg/mL,< 0.01 µg/mL,> 8.72 µg/mL,> 8.72 µg/mL,< 1 µg/mL,< 1 µg/mL
"CCNC(=O)OC12C(=O)c3ccccc3C1(OC)Oc1cc(C(C)C)ccc12 (stereo not shown) [Example 62, 7-isopropyl-4b-methoxy-10-oxo-4b, 10-dihydro-9bH-indeno[1,2-b]benzofuran-9b-yl ethyl carbamate]",< 10 µg/mL,> 10 µg/mL,> 10 µg/mL,< 10 µg/mL,> 10 µg/mL,> 10 µg/mL,> 10 µg/mL,> 10 µg/mL
"CCOC(=O)C(=O)NC12C(=O)c3c(N)cccc3C1(O)Oc1cc(C(C)C)ccc12 (stereo not shown) [Example 36, Ethyl 2-((1-amino-4b-hydroxy-7-isopropyl-10-oxo-4b, 10-dihydro-9bH-indeno[1,2-b]benzofuran-9b-yl)amino)-2-oxo acetate]",< 0.1 µg/mL,> 10 µg/mL,> 10 µg/mL,< 0.1 µg/mL,> 10 µg/mL,> 10 µg/mL,< 1 µg/mL,< 10 µg/mL
"CC(C)CC(=O)C(=O)NC12C(=O)c3cccc([N+](=O)[O-])c3C1(O)Oc1cc(C(C)C)ccc12 (stereo not shown) [Example 38, N-(4b hydroxyl-7-isopropyl-4-nitro-10-oxo-4b, 10-dihydro-9bH-indeno[1,2-b]benzofuran-9b-yl)-4-methyl-2-oxo pentanamide]",< 1 µg/mL,> 10 µg/mL,> 10 µg/mL,< 1 µg/mL,> 10 µg/mL,> 10 µg/mL,< 10 µg/mL,< 10 µg/mL
"CC(C)c1ccc2c(c1)OC1(O)c3cccc(N)c3C(=O)C21NC(=O)C(=O)N(C)C (stereo not shown) [Example 31, N1-(1-amino-4b-hydroxy-7-isopropyl-10-oxo-4b, 10-dihydro-9bH-indeno[1,2-b]benzofuran-9b-yl)-N2, N2-dimethyl oxal amide]",< 0.01 µg/mL,> 10 µg/mL,> 10 µg/mL,< 0.01 µg/mL,< 10 µg/mL,73 µg/mL,0.012 µg/mL,< 0.1 µg/mL
"CC(C)c1ccc2c(c1)OC1(O)c3ccccc3C(=O)C21NC(=O)C(=O)C(C)(C)C (stereo not shown) [Example 37, N-(4b-hydroxy-7-isopropyl-10-oxo-4b, 10-dihydro-9bH-indeno[1,2-b]benzofuran-9b-yl)-3,3-dimethyl-2-oxo butanamide]",< 0.1 µg/mL,> 10 µg/mL,> 10 µg/mL,< 0.1 µg/mL,> 10 µg/mL,> 10 µg/mL,< 0.1 µg/mL,< 10 µg/mL
